This is an account of results in patent EP0552379B1, “DIHYDROPYRIDINE DERIVATIVES, AND PROCESS FOR THEIR PREPARATION” (FUJISAWA PHARMACEUTICAL CO., LTD., priority 1991, dated 1993).

Assay [1] concerns Wistar rats. Kind of assay: Hypotensive effect (mean arterial pressure, femoral artery, intravenous administration). It counts as in vivo. The following applies: dose 1.0 mg/kg, intravenously. Here is the method:
Three Wistar rats were used per group. Each animal was placed in a cage sized to the body after cannulation of catheters into the femoral artery and vein under ether anesthesia. Blood pressure was measured in the femoral artery by means of a pressure transducer and recorded as electrically integrated values of mean arterial pressure. Heart rate was counted from instant arterial pressure pulses by running the record paper at a faster speed periodically.
The test compound was administered intravenously through a catheter cannulated in the femoral vein more than 2 hours later the completion of the operation.

For assay [2], the target named is β receptor. Kind of assay: β receptor binding (^3H-Dihydroalprenolol (DHA) binding to crude cardiac microsomal membrane). Details: species or system SD strain rats. The settings on record: [^3H]DHA 1nM, rat heart microsomal membrane, 25°C, 30 minutes. How it is done:
(3) β receptor binding Test methods (a) Crude cardiac microsomal membrane preparation SD strain rats were sacrificed by decapitation. The heart was removed and homogenized in buffer (0.25M sucrose, 10mM MOPS, pH7.4) by using Polytoron (Kinematica). The homogenate was homogenized by teflon glass homogenizer. The homogenate was centrifuged (1,000g x 10 min) to remove tissue clumps and the supernatant was centrifuged (10,000g x 10 min) twice. The supernatant was centrifuged (100,000g x 60 min) to yield pellets. The pellets were resuspended in buffer (50mM Tris-HCl, pH7.4), which were referred to as crude microsomal membrane fractions. The obtained suspensions were stored at -80°C until use. (b) ^3H-Dihydroalprenolol (DHA) binding to preparative membrane Frozen crude microsomal membrane fractions were thawed. [^3H) DHA (1nM) was incubated with 50 µl of the membrane preparation at 25°C for 30 minutes in a final volume of 200 µl. At the end of the incubation period, reaction mixture was quickly filtrated over a Whatman GF/C glass filter under aspiration. The filters were washed 5 times with 3ml of the buffer (50mM Tris-HCl, pH7.4). The radioactivity was counted in 6ml of Clear-sol I in Packard scintillation counter (Packard TRI-CARB 4530).

In general, Ki refers to a dissociation constant, usually derived from enzyme kinetics or from competition with a known ligand.

Regarding `COC(=O)C1=C(C(F)(F)F)NC(C)=C(C(=O)OCCc2ccc(OCC(O)CNC(C)C)cc2)C1c1cccc([N+](=O)[O-])c1` (centres unmarked) [Dihydropyridine A, 2-{p-(2-hydroxy-3-isopropylaminopropoxy)phenyl}ethyl 1,4-dihydro-3-methoxycarbonyl-6-methyl-4-m-nitrophenyl-2-trifluoromethylpyridine-5-carboxylate], in assay [1], the “Maximum change of blood pressure” value is on record as -39(%). The Ki in assay [2] was determined as 507 nM.
